# Columns and labels:
# SEC22b protein = biological target: T1, SEC22b protein (Homo sapiens, UniProt O75396); test: binding to vesicle movement protein
# T1 sequence (O75396 1-215): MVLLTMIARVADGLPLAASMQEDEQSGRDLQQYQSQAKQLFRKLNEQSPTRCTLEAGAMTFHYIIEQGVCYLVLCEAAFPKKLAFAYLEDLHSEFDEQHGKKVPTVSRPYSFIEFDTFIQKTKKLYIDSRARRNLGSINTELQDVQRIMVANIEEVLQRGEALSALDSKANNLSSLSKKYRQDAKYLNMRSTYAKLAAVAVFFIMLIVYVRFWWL
# [1] = system: RVH human melanoma cell line; test: cytotoxic effect on melanoma cell line, MTS assay, 48 hours; format: cell-based; settings: 48 hours treatment; FIG. 4
# Procedure: RVH human melanoma cell line was cultured in Minimum Essential Medium Eagle (Sigma, St. Louis, Mo., USA), Na-piruvate, Glutamine, Non-essential amino acids, penicillin (50 IU/ml)-streptomycin ([…]), 10% fetal bovine serum at 37° C., in 5% CO2. Cells were trypsinized with trypsin/EDTA (Sigma-Aldrich, St. Louis, Mo.) on every second day and were passed into 60 or 100 mm plates. When the culture reached the required cell number (approx. 10^6) for the planned experiment 50.00 cell/well was plated into 24 well plates (Costar® 24 Well TC-Treated Microplates) and left overnight to adhere to the bottom of the well. Addition of the substance was performed the following way: next day the culture media was drawn from the adhered cells and media comprising compounds of the present invention in appropriate concentration and well mixed therein was pipetted (2 ml/well) onto the cells. The substance to be examined was diluted in 100% DMSO, this way an amount of DMSO corresponding to the highest concentration of the substance in a given assay were measured in the media of the control wells. After 48 hours of treatment live cells were detected by CellTiter® 96 Aqueous Non-radioactive Cell Proliferation Assay (Promega, Madison, Wis., USA) to determine the number of live cells in the treated and in the control samples.
# MTS is converted to formazane in the living cells, which product is dissolved in the media, and its quantity/absorbance can be measured at 490 nm. […] Then, for the determination of the ratio of live cells 20 μl MTS and 1 μl PMS are added to 100 μl media. The enzyme reaction occurs at incubation at 37° C., 5% CO2 for 1 to 4 hours. Formazane produced by the cells is read on ELISA plate reader, from which the number of living cells can be obtained indirectly. Since the inventors performed the experiments in 24 well plates with 50.000 cell/well, the protocol had to be modified. After treatment of the cells for an appropriate time (type of compound, different concentrations), the incubation media (2 ml) containing the examined substance was removed, then 400 μl media containing reagents in the same concentration as given above (333.3 μl media, 66.6 μl MTS, and 3.3 μl PMS per well) was pipetted to the cells. To be able to use ELISA plate reader (Multiskan R C, Thermo Labsystems, Franklin, Mass., USA) 400 μl sample from each single well of the 24 well plate was pipetted into four wells of a 96 well plate (Micromethod plates 96 wells flat form) in 100 μl aliquots. That also helped to eliminate possible errors due to inconsistent pipetting. On each 24 well plate 4 wells were control samples. From these 3 times 100 μl was pipetted onto the 96 well plates, so, altogether 12 controls were provided on each 96 well plate. The remaining 4 wells were for background measurements with 100 μl media containing MTS and PMS as described above.
# [2] = system: HepG2 (human hepatocellular carcinoma); test: cytotoxic effect on hepatocellular carcinoma cell line, MTS test, 24 hours; format: cell-based; settings: 24 hours incubation, already at 20 and 50 μM concentrations
# Procedure: In these experiments HepG2 (human hepatocellular carcinoma) and MCF7 (Human breast adenocarcinoma) cells were used. They were cultured in the following media: For HepG2 Dulbecco's Modified Eagle Medium (D-MEM) (high glucose) (Gibco BRL, Carlsbad, Calif., USA), penicillin (50 IU/ml)-streptomycin ([…]), 10% fetal bovine serum; for MCF7 (Human breast adenocarcinoma) 1:1 mixture of Dulbecco's Modified Eagle Medium (D-MEM) (high glucose) (Gibco BRL, Carlsbad, Calif., USA) and Nutrient Mixture F-12 Ham (Sigma, St. Louis, Mo., USA), penicillin (50 IU/ml)-streptomycin ([…]), 10% fetal bovine serum. Experiments were performed as described in Example 9. with the difference that the incubation time was 24 hours in this case. After the incubation period MTS test (3-(4,5-dimethylthiazol-2-yl)-5-(3-carboxymethoxyphenyl)-2-(4-sulfophenyl)-2H-tetrazolium) (Promega, Madison, Wis., USA) was performed as described above.
# human melanoma (HT168M1) = test: spleen/liver animal model, melanoma cells injected into spleen; format: in vivo, CB17/scid mice
# Procedure: Studies were conducted in the spleen/liver animal model. From 40 adult male CB17/scid mice, born with immunodeficiency, 20 were randomly selected, and they were further divided into two groups. Animals were marked on their ear one by one. 10 of the selected mice were treated with compound 3b (40 mg/kg) for 5 days (PRETREATED/3b), the other 10 animals were treated per os by gavage with appropriate dilution of DMSO serving as the carrier (PRETREATED/control). On the 5th treatment day all the 40 animals were anesthetized by Nembutal (75 mg/kg), and 4×10^4 cells from human melanoma (HT168M1) was injected into their spleens (i.s.). Local bleeding during the implantation was treated with Gelaspon resorbable gelatin sponge. On the 7th day after the implantation the non-treated 20 mice were randomly assigned into two groups and their ear was marked. 10 mice were treated from this time on with compound 3b (40 mg/kg) (POSTTREATED/3b), the other 10 were treated with appropriate dilution of the carrier (DMSO) with similar frequency (POSTTREATED/control) per os once a day five times per week for three weeks. Pretreated groups were not treated after the implantation. Body weight changes were monitored once a week for each animal. 31 days after implantation animals were sacrificed by bleeding in Nembutal (75 mg/kg) anesthesia. […]
# [3] = system: pseudorabies Bartha type viruses; format: cell-based, pseudorabies virus; settings: 100 μM
smiles,measurement,setting,value
"CCNc1c(F)c(F)c2c(c1F)C(=O)N(c1c(C(C)C)cccc1C(C)C)C2=O [Compound 3b, 2-(2,6-diisopropylphenyl)-5-(ethylamino)-4,6,7-trifluoroisoindole-1,3-dione]",binding to SEC22b protein,SEC22b protein,can also bind to SEC22b protein
same,inhibition of RVH melanoma cells (cytotoxic effect),[1],strongest inhibition
same,effect on HepG2 cells,[2],strong effect
same,further metastasis of the adhered cells,"human melanoma (HT168M1); posttreatment 40 mg/kg per os from day 7, five times per week for three weeks, not statistically significant",slightly inhibited
same,number of metastases,"human melanoma (HT168M1); pretreatment 40 mg/kg per os for 5 days before implantation, p=0.05, FIG. 7",significantly reduced the number of metastases
same,entry of the viruses into the cell,[3],does not inhibit the entry of the viruses into the cell
same,release and spreading of the viruses in vitro,[3],does inhibit their release and thus their spreading in vitro
same,plaque size (viral positive cells),[3]; 24 hours,2-6 cells/plaque

# — US8232299B2, “Phthalimide derivatives that influence cellular vesicular systems, pharmaceutical compositions, and use thereof” (Avidin Kft., priority 2007, dated 2012)
